Results on four compounds are retold here after US10610535B2 (The Regents of the University of California, priority 2005, dated 2020).

The subject of assay [1] is spinal cords of mice with EAE. As to the kind of experiment: Spinal cord histopathology and immunohistochemistry in EAE (Example 5). It is filed as in vivo. The note with it: acute phase of EAE. From the text: Mice were deeply anesthetized with isoflurane and perfused transcardially with ice-cold 0.9% saline, followed by 10% formalin. Spinal cord columns were removed and postfixed overnight in 10% formalin and cryoprotected with 20% sucrose solution, in PBS. Spinal cords were removed from the column, cut in three parts (cervical, thoracic, and lumbar), and embedded in gelatin/sucrose mix. Spinal cord regions in gelatin were further postfixed and stored in 20% sucrose. Free-floating sections (25 μm thick) were cut coronally with a sliding microtome and collected serially in PBS. […]
To quantify immunostaining results, sections from spinal cord levels T1-T5 were examined, six from each mouse, with n=3 mice per treatment group, for a total of 18 sections per treatment group. […] All images were converted to grayscale and then analyzed by density measurement with ImageJ version 1.29 (the Windows version of NIH Image), downloaded from rsb.info.nih.gov/ij. A fixed threshold range of 0-160 was chosen to highlight the staining signals in normal spinal cord sections, and the total area within this range was measured, averaged, and compared.
Increase in total number of infiltrating cells after induction of EAE was measured by density measurements of DAPI+nuclei in the whole white matter. Neuronal cells were quantified by counting the NeuN+/β3-tubulin+/DAPI+ cells per square millimeter in the whole gray matter. […]

Assay [2] concerns PLP 139-151 stimulated splenocytes. As to the kind of experiment: Splenic immune responses (proliferation, cytokines) in SJL mice with EAE. It counts as in vivo. The note with it: day 52 after disease induction, vs vehicle. As for the experimental part:
(§1) Spleens were harvested either after deep anesthesia prior to perfusion or after euthanasia. Splenocytes were stimulated with the indicated autoantigens at […], and proliferation assessed using standard H3 incorporation assays, as described. Supernatants were collected after 48 and 72 hours, and levels of TNF-i, IFN-γ, 11,6, and 1 L5 were determined by cytometric bead array (BD Biosciences), as described. EAE clinical disease severity was compared between treatment groups using the Friedman test; histopathological changes were assessed using 1×4 ANOVAs; uterine weights, proliferative responses and cytokine levels were compared between treatment groups using Student t-test, and time on rotorod was compared between treatment groups using ANOVA.

In assay [3] the test system is MOG 35-55 stimulated splenocytes. As to the kind of experiment: Autoantigen specific cytokine production by splenocytes in C57BL/6 EAE (Example 6). It counts as in vivo, mice. The note with it: vs vehicle. The protocol:
as §1

Assay [4] relates to C57BL/6 mice with EAE. As to the kind of experiment: Clinical severity of MOG 35-55 induced active EAE (Example 6). To be noted: vs vehicle. It is filed as in vivo.
Assay [5] has as its system C57BL/6 mice with EAE. Kind of assay: Rotarod testing of motor performance during EAE. It counts as in vivo. As for the experimental part:
Motor behavior was tested up to two times per week for each mouse using a rotarod apparatus (Med Associates mc, St. Albans, Vt.). Briefly, animals were placed on a rotating horizontal cylinder for a maximum of 200 seconds. The amount of time the mouse remained walking on the cylinder, without falling, was recorded. Each mouse was tested on a speed of 3-30 rpm and given three trials for any given day. The three trials were averaged to report a single value for an individual mouse, and then averages were calculated for all animals within a given treatment group. The first two trial days, prior to immunization (day 0), served as practice trials.
EAE clinical disease severity was compared between treatment groups using the Friedman test; histopathological changes were assessed using 1×4 ANOVAs; uterine weights, proliferative responses and cytokine levels were compared between treatment groups using Student t-test, and time on rotorod was compared between treatment groups using ANOVA.

Assay [6] relates to SJL mice with EAE. As to the kind of experiment: PLP 139-151 induced active EAE in SJL mice, relapses. It counts as in vivo.
The subject of assay [7] is uterus (positive control tissue) of ovariectomized C57BL/6 mice. As to the kind of experiment: Uterine weights to assess dosing (Example 6). It is filed as in vivo. The protocol:
Uterine weight was used as a positive control to assess dosing of estrogen agonists. Daily subcutaneous injections of vehicle, estradiol, PPT, or DPN, as well as a combination of ITT with DPN, were administered for ten days at indicated doses to ovariectomized mice. Following euthanasia, the uterus was extracted, then fat, connective tissue, and excess fluid removed in order to obtain the uterine weight, as described. EAE clinical disease severity was compared between treatment groups using the Friedman test; histopathological changes were assessed using 1×4 ANOVAs; uterine weights, proliferative responses and cytokine levels were compared between treatment groups using Student t-test, and time on rotorod was compared between treatment groups using ANOVA.

Assay [8] concerns spinal cords of mice with EAE. As to the kind of experiment: Spinal cord histopathology and immunohistochemistry in EAE (Example 6). It is filed as in vivo. From the text: Mice were deeply anesthetized with isoflurane and perfused transcardially with ice-cold 0.9% saline, followed by 10% formalin. Spinal cord columns were removed and post-fixed overnight in 10% formalin and cryoprotected with 20% sucrose solution in PBS. Spinal cords were removed from the column and cut in 3 parts (cervical, thoracic and lumbar) and embedded in gelatin/sucrose mix. Spinal cord regions in gelatin were further postfixed and stored in 20% sucrose. Free-floating sections (25 μm thick) were cut coronally with a sliding microtome and collected serially in PBS.
Serial sections were mounted on slides and stained with Hematoxylin & eosin (H&E) or Nissl. Consecutive sections were also examined by immunohistochemistry. Briefly, 25 μm free-floating sections were permeabilized in 0.3% Triton X-100 in PBS and blocked with 10% normal goat serum. White matter immunostaining was enhanced by treating sections with 95% ethanol/5% acetic acid for 15 minutes prior to permeabilization and blocking. To detect specific cell types and structures, sections were pre-incubated with primary antibodies in PBS solution containing 2% NGS for 2 hours at room temperature, then overnight at […]. The following primary antibodies were used: anti-133 tubulin and anti-neurofilament-NF200 (monoclonal, Chemicon; polyclonal Sigma Biochemical), anti-neuronal specific nuclear protein (NeuN), anti-CD4S (Chemicon), and anti-MW (Chemicon). The second antibody step was performed by labeling with antibodies conjugated to TRITC, FITC and Cy5 (Vector Labs and Chemicon). IgG-control experiments were performed for all primary antibodies, and no staining was observed under these conditions. To assess the number of cells, a nuclear stain 4′,6-Diamidino-2-phenylindole, DAPI (2 ng/ml; Molecular Probes) was added for 15 minutes prior to final washes after secondary antibody addition. The sections were mounted on slides, dried and coverslipped in fluoromount G (Fisher Scientific).
To quantify immunostaining results, sections from spinal cord levels T1-T5 were examined, six from each mouse, with n=3 mice per treatment group, for a total of 18 sections per treatment group. Images were captured under microscope (4×, 10× or 40×) using the DP70 Image software and a DP70 camera (both from Olympus). Identical tight intensity and exposure times were applied to all photographs from each experimental set. Images from the same areas of spinal cord were compared (TI-IS) and were acquired separately from delineated whole gray and white mailer regions. The middle region of the ventral horn was the focus for gray matter analysis, while the area lateral to the ventral horn was the focus for white matter analysis. Six gray matter and six white matter pictures were collected from the two sides of TI-IS sections (100 jim apart) from three animals in each treatment group. All images were converted to grayscale and then analyzed by density measurement with ImageJ vi 0.29 (the Windows version of NIH Image), downloaded from rsb.info.nih.gov/ij. A fixed threshold range of 0 to 160 was chosen to highlight the staining signals in normal spinal cord sections, and the total area within this range was measured, averaged, and compared.
Increase in total number of infiltrating cells after induction of EAE was measured by density measurements of DAPI nuclei in the whole white matter. Neuronal cells were quantified by counting the NeuN^+/β3-tubulin^+/DAPI^+ cells per mm2 in the whole gray matter. Both white and gray matter assessments occurred in the TI-IS spinal cord sections. Laser scanning confocal microscopic scans at 40× were performed on Mac 3^+/β3-tubulin^+ immunostained spinal cord sections corresponding to levels 11-15 ventral horn. […]

In assay [9] the test system is post-partum patient with relapsing remitting multiple sclerosis. Kind of assay: Case of post-partum relapsing remitting MS patient. It counts as in vivo, human. The protocol:
A patient was diagnosed as having relapsing remitting multiple sclerosis. Following the delivery of their first child (now […]), the patient was treated only with Copaxone and relapsed at 6 weeks. Following the delivery of their second child (now […]), the patient was again treated with Copaxone alone and again relapsed, this time at 4.5 months. Following a subsequent pregnancy, the patient was treated with 8 mg estriol/day in an attempt to prevent their post partum relapses.
Following the birth of the patient's third child (now 6 months), the patient resumed treatment with Copaxone as before. However, on day 10 post-partum they began taking estriol 8 mg/daily in an oral dosage form. […] Since monthly brain MRIs with gadolinium to detect enhancing MS lesions are more sensitive for inflammatory disease activity than relapses, the patient underwent serial monthly MRIs at post partum months 4, 5, and 6.
The patient doubled the progesterone minipill for 2 weeks to stabilize the endometrium. Otherwise no adverse events have been reported.

Where [10] appears, read: early (day 19) and later (day 40) stages of EAE.
The mark [11] stands for this setting: day 19 and day 40, vs normal mice.

Take `CCCc1c(-c2ccc(O)cc2)nn(-c2ccc(O)cc2)c1-c1ccc(O)cc1` [PPT, propyl pyrazole triol]: the “Decrease of Mac 3+ cells in gray matter compared with vehicle-treated EAE mice” value in assay [1] is about 65%.
As to `C[C@]12CC[C@@H]3c4ccc(O)cc4CC[C@H]3[C@@H]1CC[C@@H]2O` [estradiol, 17β-estradiol], in [1], the “Decrease of Mac 3+ cells in gray matter compared with vehicle-treated EAE mice” value is listed as about 65%.
On to `N#CC(Cc1ccc(O)cc1)c1ccc(O)cc1` (centres unmarked) [DPN, Diarylpropionitrile], for which the “Cytokine (TNFα, IFNγ) production during the PLP 139-151 specific response” value in assay [2] was “No significant differences”. For the same compound, in assay [2], the “Proliferation during the PLP 139-151 specific response” value was “No significant differences”. Also, the “Anti-inflammatory cytokine IL5” value in [3] (setting [10]) is on record as “not statistically different from vehicle treatment”. The “Levels of proinflammatory cytokines (TNFα, IFNγ, and IL6)” value in [3] (setting [10]) is “not statistically different from vehicle treatment”. Moreover, the IL10 production result in [3] is recorded as “No differences”. Moreover, the “Clinical scores (EAE 0-5 scale)” value in assay [4] (DPN 8 mg/kg/day s.c., ovariectomized C57BL/6, early in disease (up to day 20 after induction)) is “not significantly different”; in assay [4] (DPN 8 mg/kg/day s.c., ovariectomized C57BL/6, later during EAE (following day 30 after induction)), “significantly improved”; in [4] (DPN, ovariectomized ERβ KO C57BL/6 mice), “no different”. Also, the “Mean time on rotarod (motor function)” value in assay [5] (ERβ KO mice with EAE, later phase of disease) was “no improvement was observed”; in assay [5] (ovariectomized wild type C57BL/6 with EAE, after day 30) it was “significant recovery of motor function”. Also, in assay [6] (DPN treated SJL mice, relapses between days 36 and 52, vehicle 10/13), the “Relapses (mice with relapse / mice)” value is reported as 5/13. Besides, the “Relapses (percent of mice)” value in [6] (DPN treated SJL mice, relapses between days 36 and 52, vehicle 77%) is recorded as 33%. In addition, in assay [6] (DPN vs vehicle, SJL mice), the “Incidence, day of onset, peak clinical scores” value is “no difference”. For the same compound, the “PPT 3.3 mg/kg/day mediated increase in uterine weight” value in assay [7] (DPN 8 mg/kg/day in combination with PPT, 10 days) is “antagonized”. Moreover, in assay [7] (DPN alone 8 mg/kg/day s.c. for 10 days, ovariectomized C57BL/6), the Uterine weight entry is listed as “no effect on uterine weight”. For the same compound, the “White matter cell density, myelin density, axonal numbers and NeuN+ cells” value in assay [8] (ERβ knock out mice with EAE, day 38-40) is “does not prevent white and gray matter pathology”. Moreover, in assay [8] (setting [11]), the “MBP immunoreactivity in dorsal column (myelin density)” value is given as “no significant decreases”. Moreover, in assay [8] (setting [11]), the “Neurofilament stained axon numbers in white matter” value is listed as “no significant reduction in axon numbers”. For the same compound, the “NeuN+ cell numbers in gray matter” value in assay [8] (early (day 19) and later (day 40) time points, vs healthy controls) was “fewer, but not significantly different from those in healthy controls”. In [8] (early and later time points, vs vehicle treated EAE), the “CD45 staining in white matter” value is listed as “did not have reduced CD45 staining”. In addition, the “Inflammation, white matter cell density (DAPI+ cells) of thoracic cord” value in assay [8] (early stage of EAE (day 19), vs vehicle treated EAE) is reported as “not significantly different from those in vehicle treated”; in assay [8] (later time point (day 40), vs vehicle), “no different from that in vehicle treated”.
Turning to “glatiramer acetate copolymer-1 [Copaxone]”, the “Time to post-partum relapse” value in assay [9] (Copaxone alone, after delivery of second child) amounted to 4.5 months; in [9] (Copaxone only, after delivery of first child), 6 weeks.
